Data on 29 molecules can be found in US20240174662A1, “SMALL MOLECULE INHIBITORS OF SALT INDUCIBLE KINASES” (Janssen Biotech, Inc., priority 2021, published 2024).

This experiment concerns the target SIK2 (Homo sapiens (Human), UniProt Q9H0K1). The experiment is described as follows: SIK2 Enzymatic Assay Version 2 (High ATP). The class given is biochemical. The settings on record: 3 mM ATP and 200 μM HDAC5tide final, ADP-Glo Max luminescence. Put shortly: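 Run at room temperature; SIK2 enzyme at 6 nM (2× final) preincubated with compound 30 min before reaction. ADP formation detected by ADP-Glo Max (2 h reagent, 1 h detection) with luminescence read-out.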
For orientation: ADP-Glo first removes unused ATP, then detects ADP through luciferase.

Sequence of SIK2 (Q9H0K1 whole entry, species assumed): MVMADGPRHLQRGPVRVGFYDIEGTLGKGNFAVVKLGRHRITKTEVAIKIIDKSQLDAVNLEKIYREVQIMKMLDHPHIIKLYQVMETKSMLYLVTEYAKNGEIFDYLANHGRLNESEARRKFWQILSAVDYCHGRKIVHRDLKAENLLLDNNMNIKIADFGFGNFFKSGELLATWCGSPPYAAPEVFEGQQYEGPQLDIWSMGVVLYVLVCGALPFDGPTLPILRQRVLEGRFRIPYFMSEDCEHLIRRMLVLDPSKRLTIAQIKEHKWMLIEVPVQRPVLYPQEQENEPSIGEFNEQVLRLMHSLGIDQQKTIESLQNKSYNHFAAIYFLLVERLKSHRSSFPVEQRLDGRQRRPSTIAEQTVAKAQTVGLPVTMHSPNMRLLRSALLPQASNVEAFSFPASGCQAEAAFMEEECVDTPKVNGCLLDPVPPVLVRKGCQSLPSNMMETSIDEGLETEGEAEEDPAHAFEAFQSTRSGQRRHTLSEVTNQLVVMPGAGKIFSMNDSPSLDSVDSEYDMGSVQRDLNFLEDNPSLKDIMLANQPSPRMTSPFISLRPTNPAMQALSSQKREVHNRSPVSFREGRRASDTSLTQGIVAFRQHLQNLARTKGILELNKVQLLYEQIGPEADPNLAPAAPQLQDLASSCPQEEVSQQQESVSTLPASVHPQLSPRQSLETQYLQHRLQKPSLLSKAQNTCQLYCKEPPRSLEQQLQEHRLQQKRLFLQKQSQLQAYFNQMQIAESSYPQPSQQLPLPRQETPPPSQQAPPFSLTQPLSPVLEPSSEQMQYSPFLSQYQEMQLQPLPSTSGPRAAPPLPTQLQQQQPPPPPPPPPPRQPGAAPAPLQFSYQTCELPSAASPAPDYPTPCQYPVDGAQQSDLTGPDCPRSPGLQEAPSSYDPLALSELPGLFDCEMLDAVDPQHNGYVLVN

Turning to `CCc1cc(Nc2cc3cc(-c4c(OC[C@@H]5CCN5C)cnn4C)ccn3n2)nc(C)n1` [Example 137, N-(6-ethyl-2-methyl-pyrimidin-4-yl)-5-[2-methyl-4-[[(2S)-1-methylazetidin-2-yl]methoxy]pyrazol-3-yl]pyrazolo[1,5-a]pyridin-2-amine], half-maximal inhibition (IC50) required 0.0169 µM.

As to `CN1CC[C@@H]1COc1cnn(C)c1-c1ccn2nc(NC(=O)[C@@H]3C[C@@H]3C#N)cc2c1` [Example 475, cis-2-cyano-N-[5-[2-methyl-4-[(1-methylazetidin-2-yl)methoxy]pyrazol-3-yl]pyrazolo[1,5-a]pyridin-2-yl]cyclopropanecarboxamide], the IC50 (commonly the concentration that gives 50% inhibition) was 0.0519 µM.

Consider `Cn1ncc(O[C@@H]2CCNC2)c1-c1ccn2nc(NC(=O)C3CC3)cc2c1` [Example 335, N-[5-[2-methyl-4-[(3R)-pyrrolidin-3-yl]oxy-pyrazol-3-yl]pyrazolo[1,5-a]pyridin-2-yl]cyclopropanecarboxamide], for which the IC50 was 0.0687 µM.

`Cc1onc(O[C@@H]2CCN(C)C3(CCC3)C2)c1-c1ccn2nc(NC(=O)C3CC3)cc2c1` (single isomer, unassigned) [Example 219, (*R)—N-[5-[5-methyl-3-[(9-methyl-9-azaspiro[3.5]nonan-6-yl)oxy]isoxazol-4-yl]pyrazolo[1,5-a]pyridin-2-yl]cyclopropanecarboxamide] gave a 50% inhibitory concentration (IC50) of 0.0443 µM.

The molecule `Cc1onc(O[C@@H]2CN[C@H](C(F)F)C2)c1-c1ccn2nc(NC(=O)C3CC3)cc2c1` [Example 389, N-[5-[3-[(3S,5S)-5-(difluoromethyl)pyrrolidin-3-yl]oxy-5-methyl-isoxazol-4-yl]pyrazolo[1,5-a]pyridin-2-yl]cyclopropanecarboxamide] showed an IC50 of 0.125 µM.

Take `Cc1cc(Nc2cc3cc(-c4c(O[C@H]5CCN(C)C5)cnn4C)ccn3n2)nnc1C` [Example 272, N-(5,6-dimethylpyridazin-3-yl)-5-[2-methyl-4-[(3S)-1-methylpyrrolidin-3-yl]oxy-pyrazol-3-yl]pyrazolo[1,5-a]pyridin-2-amine]: the IC50 was found to be 0.0435 µM.

With `Cc1onc(O[C@H]2C[C@H](N)C2)c1-c1ccn2nc(NC(=O)C3CC3)cc2c1` [Example 386, N-[5-[3-(3-aminocyclobutoxy)-5-methyl-isoxazol-4-yl]pyrazolo[1,5-a]pyridin-2-yl]cyclopropanecarboxamide], 0.111 µM corresponded to half-maximal inhibition (IC50).

The molecule `Cn1ncc(OC[C@H]2CCN2CC2COC2)c1-c1ccn2nc(NC(=O)C3CC3)cc2c1` [Example 433, N-[5-[2-methyl-4-[[(2R)-1-(oxetan-3-ylmethyl)azetidin-2-yl]methoxy]pyrazol-3-yl]pyrazolo[1,5-a]pyridin-2-yl]cyclopropanecarboxamide] registered an IC50 of 0.122 µM.

In turn, `Cc1ccc(Nc2cc3cc(-c4c(OC[C@H]5CCCN5C)cnn4C)ccn3n2)nn1` [Example 287, 5-[2-methyl-4-[[(2R)-1-methylpyrrolidin-2-yl]methoxy]pyrazol-3-yl]-N-(6-methylpyridazin-3-yl)pyrazolo[1,5-a]pyridin-2-amine] registered an IC50 of 0.0372 µM.

With `Cn1ncc(OC[C@@H]2CNCCO2)c1-c1ccn2nc(NC(=O)C3CC3)cc2c1` [Example 230, N-[5-[2-methyl-4-[[(2S)-morpholin-2-yl]methoxy]pyrazol-3-yl]pyrazolo[1,5-a]pyridin-2-yl]cyclopropanecarboxamide], the IC50 stood at 0.0418 µM.

In the case of `Cc1onc(OC[C@H]2N(C)CC2(C)C)c1-c1ccn2nc(NC(=O)C3CC3)cc2c1` [Example 321, N-[5-[5-methyl-3-[[(2S)-1,3,3-trimethylazetidin-2-yl]methoxy]isoxazol-4-yl]pyrazolo[1,5-a]pyridin-2-yl]cyclopropanecarboxamide], the midpoint of inhibition, the IC50, lay at 0.0526 µM.

In turn, `Cn1ncc(O[C@H]2CCNC2)c1-c1ccn2nc(NC(=O)C3CC3)cc2c1` [Example 236, N-[5-[2-methyl-4-[(3S)-pyrrolidin-3-yl]oxy-pyrazol-3-yl]pyrazolo[1,5-a]pyridin-2-yl]cyclopropanecarboxamide] returned a half-inhibitory concentration (IC50) of 0.0291 µM.

Turning to `CO[C@@H]1CN(C)C[C@H]1COc1cnn(C)c1-c1ccn2nc(NC(=O)C3CC3)cc2c1` [Example 423, N-[5-[4-[[(3S,4S)-4-methoxy-1-methyl-pyrrolidin-3-yl]methoxy]-2-methyl-pyrazol-3-yl]pyrazolo[1,5-a]pyridin-2-yl]cyclopropanecarboxamide], the IC50 worked out at 0.151 µM.

`Cc1cc(Nc2cc3cc(-c4c(OC[C@H]5CCN5C)cnn4C)ccn3n2)nc2c1CCC2` [Example 136, N-(4-methyl-6,7-dihydro-5H-cyclopenta[b]pyridin-2-yl)-5-[2-methyl-4-[[(2R)-1-methylazetidin-2-yl]methoxy]pyrazol-3-yl]pyrazolo[1,5-a]pyridin-2-amine] registered an IC50 of 0.0023 µM.

Molecule `CCN1CC[C@@H]1COc1cnn(C)c1-c1ccn2nc(Nc3cc(C)nc(C4CC4)n3)cc2c1` [Example 171, N-(2-cyclopropyl-6-methyl-pyrimidin-4-yl)-5-[4-[[(2R)-1-ethylazetidin-2-yl]methoxy]-2-methyl-pyrazol-3-yl]pyrazolo[1,5-a]pyridin-2-amine] yielded an IC50 of less than 0.000847 µM.

In the case of `CCN1CC[C@@H]1COc1cnn(C)c1-c1ccn2nc(Nc3ccc4nc(C)cn4n3)cc2c1` [Example 174, N-[5-[4-[[(2R)-1-ethylazetidin-2-yl]methoxy]-2-methyl-pyrazol-3-yl]pyrazolo[1,5-a]pyridin-2-yl]-2-methyl-imidazo[1,2-b]pyridazin-6-amine], the IC50 is less than 0.000847 µM.

As to `CN1CC(C)(COc2cnn(C)c2-c2ccn3nc(NC(=O)C4CC4)cc3c2)C1` [Example 314, N-[5-[4-[(1,3-dimethylazetidin-3-yl)methoxy]-2-methyl-pyrazol-3-yl]pyrazolo[1,5-a]pyridin-2-yl]cyclopropanecarboxamide], the IC50 is 0.0304 µM.

`CCN1CC[C@@H]1COc1cnn(C(F)F)c1-c1ccn2nc(Nc3ccnc(C)n3)cc2c1` [Example 477, 5-[2-(difluoromethyl)-4-[[(2R)-1-ethylazetidin-2-yl]methoxy]pyrazol-3-yl]-N-(2-methylpyrimidin-4-yl)pyrazolo[1,5-a]pyridin-2-amine]: inhibition was half-maximal at 0.0021 µM (IC50).

With `Cc1cn2nc(Nc3cc4cc(-c5c(OC[C@H]6CCN6C)cnn5C)ccn4n3)ccc2n1` [Example 148, 2-methyl-N-[5-[2-methyl-4-[[(2R)-1-methylazetidin-2-yl]methoxy]pyrazol-3-yl]pyrazolo[1,5-a]pyridin-2-yl]imidazo[1,2-b]pyridazin-6-amine], the IC50 was less than 0.000847 µM.

For the molecule `Cc1cc(Nc2cc3cc(-c4c(OC[C@]5(F)CCNC5)cnn4C(F)F)ccn3n2)nc(C)n1` (single isomer, unassigned) [Example 263, (*S)-5-(1-(difluoromethyl)-4-((3-fluoropyrrolidin-3-yl)methoxy)-1H-pyrazol-5-yl)-N-(2,6-dimethylpyrimidin-4-yl)pyrazolo[1,5-a]pyridin-2-amine], half-maximal inhibition (IC50) required 0.0402 µM.

With `CCN1CC[C@@H]1COc1cnn(C)c1-c1ccn2nc(Nc3ccc(C)nn3)cc2c1` [Example 68, 5-[4-[[(2R)-1-ethylazetidin-2-yl]methoxy]-2-methyl-pyrazol-3-yl]-N-(6-methylpyridazin-3-yl)pyrazolo[1,5-a]pyridin-2-amine], the IC50 is less than 0.000847 µM.

`Cc1onc(OC[C@@H](N)c2ccccc2)c1-c1ccn2nc(NC(=O)C3CC3)cc2c1` [Example 31, N-[5-[3-[(2S)-2-amino-2-phenyl-ethoxy]-5-methyl-isoxazol-4-yl]pyrazolo[1,5-a]pyridin-2-yl]cyclopropanecarboxamide]: the IC50 worked out at 0.001 µM.

As for `Cc1cncc(Nc2cc3cc(-c4c(CO[C@H]5CN(C)C[C@H]5C)cnn4C)ccn3n2)n1` (stereo in doubt) [Example 378, CIS—*R, *R-5-[4-[(1,4-dimethylpyrrolidin-3-yl)oxymethyl]-2-methyl-pyrazol-3-yl]-N-(6-methylpyrazin-2-yl)pyrazolo[1,5-a]pyridin-2-amine], the half-inhibitory concentration (IC50) was 0.0122 µM.

The molecule `CO[C@@]1(COc2noc(C)c2-c2ccn3nc(NC(=O)C4CC4)cc3c2)CCNC1` (single isomer, unassigned) [Example 209, (*S)—N-(5-(3-((3-methoxypyrrolidin-3-yl)methoxy)-5-methylisoxazol-4-yl)pyrazolo[1,5-a]pyridin-2-yl)cyclopropanecarboxamide] registered an IC50 of 0.0149 µM.

Regarding `CO[C@H]1CNC[C@@H]1COc1cnn(C)c1-c1ccn2nc(NC(=O)C3CC3)cc2c1` [Example 351, N-[5-[4-[[(3R,4R)-4-methoxypyrrolidin-3-yl]methoxy]-2-methyl-pyrazol-3-yl]pyrazolo[1,5-a]pyridin-2-yl]cyclopropanecarboxamide], the IC50 amounted to 0.0526 µM.

With `Cc1snc(OC[C@H]2CNCCO2)c1-c1ccn2nc(NC(=O)C3CC3)cc2c1` [Example 331, N-[5-[5-methyl-3-[[(2R)-morpholin-2-yl]methoxy]isothiazol-4-yl]pyrazolo[1,5-a]pyridin-2-yl]cyclopropanecarboxamide], the IC50 amounted to 0.0324 µM.

In turn, `Cc1onc(OCC2(F)CN(C)C2)c1-c1ccn2nc(NC(=O)C3CC3)cc2c1` [Example 84, N-[5-[3-[(3-fluoro-1-methyl-azetidin-3-yl)methoxy]-5-methyl-isoxazol-4-yl]pyrazolo[1,5-a]pyridin-2-yl]cyclopropanecarboxamide] gave an IC50 of 0.204 µM.

`Cc1onc(O[C@@H]2CN[C@@H]3CCCO[C@@H]32)c1-c1ccn2nc(NC(=O)C3CC3)cc2c1` [Example 227, (3R, 3aS, 7aR)—N-[5-[3-(1,2,3,3a,5,6,7,7a-octahydropyrano[3,2-b]pyrrol-3-yloxy)-5-methyl-isoxazol-4-yl]pyrazolo[1,5-a]pyridin-2-yl]cyclopropanecarboxamide] had an IC50 of 0.0349 µM.

In turn, `Cc1cncc(Nc2cc3cc(-c4c(CO[C@@H]5CN(C)C[C@H]5C)cnn4C)ccn3n2)n1` (stereo in doubt) [Example 375, Trans-*R, *S-5-[4-[(1,4-dimethylpyrrolidin-3-yl)oxymethyl]-2-methyl-pyrazol-3-yl]-N-(6-methylpyrazin-2-yl)pyrazolo[1,5-a]pyridin-2-amine] displayed an IC50 of 0.0031 µM.
